# Patent publication US11596639B2, “Substituted indole Mcl-1 inhibitors” (Vanderbilt University, priority 2016, dated 2023)
# pKi: −log10 of the molar value. Where two headings read alike, the source gives them in different places.
# Legend:
# [1] = system: H929 human cancer cell lines; test: Cellular viability / proliferation (Cell TiterGlo, 72 h); assay type: cell-based
# Procedure, shortened: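 Plating is at 1,000 cells/well in 10% FBS medium; after 24 h, compound is added as a 2-fold series starting at 50 μM with under 1% DMSO.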
# [2] = molecular target: Mcl-1 (Homo sapiens (Human), UniProt Q07820); test: Fluorescence polarization anisotropy (FPA) competition assay, FITC-Bak or FITC-Bim BH3 peptide; assay type: binding; conditions: read-out: Ki for Inhibition of Mcl-1 by FPA assay
# Sequence of Mcl-1 (Q07820 172-327): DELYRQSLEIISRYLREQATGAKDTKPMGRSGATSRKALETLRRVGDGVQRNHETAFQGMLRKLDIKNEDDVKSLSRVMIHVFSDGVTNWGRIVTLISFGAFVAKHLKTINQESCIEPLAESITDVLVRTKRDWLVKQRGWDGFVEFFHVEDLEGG
# [3] = Homo sapiens, NCI-H929, 72 h, read-out: GI50 on cellular proliferation of H929 human cancer cell lines, H929 cells, 72 h, Cell TiterGlo, 10% FBS
SMILES,"GI50 [1, 3]",pKi [2],"GI50 ([1]; H929 cells, 72 h, Cell TiterGlo, 10% FBS, read-out: GI50 on cellular proliferation of H929 human cancer cell lines)"
"Cc1ccnc(Cn2c(C(=O)O)cc3cc(OC(F)(F)F)cc(N4C[C@@H](C)n5c(c(CCCOc6cc(C)c(Cl)c(C)c6)c6ccc(Cl)c(-c7c(C)nn(C)c7C)c65)C4=O)c32)c1 [Example 474, (R)-7-(7-Chloro-10-(3-(4-chloro-3,5-dimethylphenoxy)propyl)-4-methyl-1-oxo-6-(1,3,5-trimethyl-1H-pyrazol-4-yl)-3,4-dihydropyrazino[1,2-a]indol-2(1H)-yl)-1-((4-methylpyridin-2-yl)methyl)-5-(trifluoromethoxy)-1H-indole-2-carboxylic acid]",1.2 µM,7.77,
"Cc1cc(OCCCc2c3n(c4c(-c5c(C)ncnc5C)c(Cl)ccc24)[C@H](C)CN(c2cccc4c2c(C(=O)O)cn4C)C3=O)cc(C)c1Cl [Example 252, 4-[(4R)-7-chloro-10-[3-(4-chloro-3,5-dimethyl-phenoxy)propyl]-6-(4,6-dimethylpyrimidin-5-yl)-4-methyl-1-oxo-3,4-dihydropyrazino[1,2-a]indol-2-yl]-1-methyl-indole-3-carboxylic acid]",2 µM,8.89,
"Cc1cc(OCCCc2c3n(c4c(-c5c(C)nn(C)c5C)c(Cl)ccc24)[C@H](C)CN(c2cccc4cc(C(=O)O)[nH]c24)C3=O)cc(C)c1Cl [Example 233, 7-[(4R)-7-chloro-10-[3-(4-chloro-3,5-dimethyl-phenoxy)propyl]-4-methyl-1-oxo-6-(1,3,5-trimethylpyrazol-4-yl)-3,4-dihydropyrazino[1,2-a]indol-2-yl]-1H-indole-2-carboxylic acid]",1.4 µM,> 9.00,
"Cc1cc(OCCCc2c3n(c4c(-c5c(C)ncnc5C)c(Cl)ccc24)[C@H](C)CN(c2cccc4c2cc(C(=O)O)n4C)C3=O)cc(C)c1Cl [Example 210, 4-[(4R)-7-chloro-10-[3-(4-chloro-3,5-dimethyl-phenoxy)propyl]-6-(4,6-dimethylpyrimidin-5-yl)-4-methyl-1-oxo-3,4-dihydropyrazino[1,2-a]indol-2-yl]-1-methyl-indole-2-carboxylic acid]",1.5 µM,8.89,
"COc1cc(C(=O)O)cc(N2CCCn3c(c(CCCOc4cc(C)c(Cl)c(C)c4)c4ccc(Cl)c(-c5c(C)nn(C)c5C)c43)C2=O)c1OCCOc1ccccc1F [Example 65, 3-[8-Chloro-11-[3-(4-chloro-3,5-dimethyl-phenoxy)propyl]-1-oxo-7-(1,3,5-trimethylpyrazol-4-yl)-4,5-dihydro-3H-[1,4]diazepino[1,2-a]indol-2-yl]-4-[2-(2-fluorophenoxy)ethoxy]-5-methoxy-benzoic acid]",5.5 µM,8.51,
"Cc1cc(OCCCc2c3n(c4c(-c5c(C)nn(C)c5C)c(Cl)ccc24)[C@H](C)CN(c2cn(CCN4CCOCC4)c4cc(C(N)=O)ccc24)C3=O)cc(C)c1Cl [Example 402, (R)-3-(7-Chloro-10-(3-(4-chloro-3,5-dimethylphenoxy)propyl)-4-methyl-1-oxo-6-(1,3,5-trimethyl-1H-pyrazol-4-yl)-3,4-dihydropyrazino[1,2-a]indol-2(1H)-yl)-1-(2-morpholinoethyl)-1H-indole-6-carboxamide]",1.1 µM,8.31,
"CC[C@@H]1Cn2c(c(CCCOc3cc(C)c(Cl)c(C)c3)c3ccc(Cl)c(-c4c(C)nn(C)c4C)c32)C(=O)N1Cc1ccc(C(=O)O)cn1 [Example 20, (R)-6-((7-chloro-10-(3-(4-chloro-3,5-dimethylphenoxy)propyl)-3-ethyl-1-oxo-6-(1,3,5-trimethyl-1H-pyrazol-4-yl)-3,4-dihydropyrazino[1,2-a]indol-2(1H)-yl)methyl)nicotinic acid]",6.5 µM,8.60,
"Cc1cc(OCCCc2c3n(c4c(-c5c(C)nn(C)c5C)c(Cl)ccc24)CCCN(c2cc(C(=O)O)cc4c2ccn4CCN(C)C)C3=O)cc(C)c1Cl [Example 11, 4-(8-Chloro-11-(3-(4-chloro-3,5-dimethylphenoxy)propyl)-1-oxo-7-(1,3,5-trimethyl-1H-pyrazol-4-yl)-4,5-dihydro-1H-[1,4]diazepino[1,2-a]indol-2(3H)-yl)-1-(2-(dimethylamino)ethyl)-1H-indole-6-carboxylic acid]",9.9 µM,8.40,
"Cc1cc(OCCCc2c3n(c4c(-c5c(C)nn(C)c5C)c(Cl)ccc24)[C@H](C)CN(c2cccc4c2c(C(=O)O)nn4C)C3=O)cc(C)c1Cl [Example 125, 4-[(4R)-7-chloro-10-[3-(4-chloro-3,5-dimethyl-phenoxy)propyl]-4-methyl-1-oxo-6-(1,3,5-trimethylpyrazol-4-yl)-3,4-dihydropyrazino[1,2-a]indol-2-yl]-1-methyl-indazole-3-carboxylic acid]",7.6 µM,> 9.00,
"Cc1ccnc(-c2ccc3c(c2)c(N2C[C@@H](C)n4c(c(CCCOc5cc(C)c(Cl)c(C)c5)c5ccc(Cl)c(-c6c(C)nn(C)c6C)c54)C2=O)cn3C)n1 [Example 418, (R)-7-Chloro-10-(3-(4-chloro-3,5-dimethylphenoxy)propyl)-4-methyl-2-(1-methyl-5-(4-methylpyrimidin-2-yl)-1H-indol-3-yl)-6-(1,3,5-trimethyl-1H-pyrazol-4-yl)-3,4-dihydropyrazino[1,2-a]indol-1(2H)-one]",0.9 µM,8.85,
"Cc1cc(OCCCc2c3n(c4c(-c5c(C)nn(C)c5C)c(Cl)ccc24)[C@H](C)CN(c2cc(OCc4ccccc4)cc4c2cc(C(=O)O)n4C)C3=O)cc(C)c1Cl [Example 297, (P, R)-6-(benzyloxy)-4-(7-chloro-10-(3-(4-chloro-3,5-dimethylphenoxy)propyl)-4-methyl-1-oxo-6-(1,3,5-trimethyl-1H-pyrazol-4-yl)-3,4-dihydropyrazino[1,2-a]indol-2(1H)-yl)-1-methyl-1H-indole-2-carboxylic acid]",,8.62,7.9 µM
"COCCn1c(C(=O)O)cc2cc(C(C)C)cc(N3C[C@@H](C)n4c(c(CCCOc5cc(C)c(Cl)c(C)c5)c5ccc(Cl)c(-c6c(C)nn(C)c6C)c54)C3=O)c21 [Example 364, (R)-7-(7-Chloro-10-(3-(4-chloro-3,5-dimethylphenoxy)propyl)-4-methyl-1-oxo-6-(1,3,5-trimethyl-1H-pyrazol-4-yl)-3,4-dihydropyrazino[1,2-a]indol-2(1H)-yl)-5-isopropyl-1-(2-methoxyethyl)-1H-indole-2-carboxylic acid]",0.54 µM,9.00,
"Cc1cc(OCCCc2c3n(c4c(-c5c(C)nn(C)c5C)c(Cl)ccc24)[C@H](C)CN(c2cn(C)c4ccc(C(=O)N(C)Cc5cccnc5)cc24)C3=O)cc(C)c1Cl [Example 282, 3-[(4R)-7-chloro-10-[3-(4-chloro-3,5-dimethyl-phenoxy)propyl]-4-methyl-1-oxo-6-(1,3,5-trimethylpyrazol-4-yl)-3,4-dihydropyrazino[1,2-a]indol-2-yl]-N,1-dimethyl-N-(3-pyridylmethyl)indole-5-carboxamide]",2.4 µM,8.08,
"Cc1cc(N2C[C@@H](C)n3c(c(CCCOc4cc(C)c(Cl)c(C)c4)c4ccc(Cl)c(-c5c(C)nn(C)c5C)c43)C2=O)c2c(c1)cc(C(=O)O)n2CC1CCOCC1 [Example 324, (R)-7-(7-Chloro-10-(3-(4-chloro-3,5-dimethylphenoxy)propyl)-4-methyl-1-oxo-6-(1,3,5-trimethyl-1H-pyrazol-4-yl)-3,4-dihydropyrazino[1,2-a]indol-2(1H)-yl)-5-methyl-1-((tetrahydro-2H-pyran-4-yl)methyl)-1H-indole-2-carboxylic acid]",0.61 µM,> 9.00,
"Cc1nn(C)c(C)c1-c1c(Cl)ccc2c(CCCOc3ccccc3)c3n(c12)[C@H](C)CN(c1cn(C)c2ccc(C(=O)O)cc12)C3=O [Example 408, (R)-3-(7-Chloro-4-methyl-1-oxo-10-(3-phenoxypropyl)-6-(1,3,5-trimethyl-1H-pyrazol-4-yl)-3,4-dihydropyrazino[1,2-a]indol-2(1H)-yl)-1-methyl-1H-indole-5-carboxylic acid]",3.2 µM,8.66,
"Cc1cc(OCCCc2c3n(c4c(-c5c(C)nn(C)c5C)c(Cl)ccc24)[C@H](C)CN(c2cn(C)c4c(C)cc(C(=O)O)cc24)C3=O)cc(C)c1Cl [Example 145, (R)-3-(7-chloro-10-(3-(4-chloro-3,5-dimethylphenoxy)propyl)-4-methyl-1-oxo-6-(1,3,5-trimethyl-1H-pyrazol-4-yl)-3,4-dihydropyrazino[1,2-a]indol-2(1H)-yl)-1,7-dimethyl-1H-indole-5-carboxylic acid]",0.36 µM,> 9.00,
"Cc1cc(OCCCc2c3n(c4c(-c5c(C)nn(C)c5C)c(Cl)ccc24)[C@H](C)CN(c2cn(C)c4ccc(-c5nnco5)cc24)C3=O)cc(C)c1Cl [Example 346, (R)-7-Chloro-10-(3-(4-chloro-3,5-dimethylphenoxy)propyl)-4-methyl-2-(1-methyl-5-(1,3,4-oxadiazol-2-yl)-1H-indol-3-yl)-6-(1,3,5-trimethyl-1H-pyrazol-4-yl)-3,4-dihydropyrazino[1,2-a]indol-1(2H)-one]",1.6 µM,8.29,
"CCn1cc(C(=O)O)c2cccc(N3C[C@@H](C)n4c(c(CCCOc5cc(C)c(Cl)c(C)c5)c5ccc(Cl)c(-c6c(C)nn(C)c6C)c54)C3=O)c21 [Example 103, (R)-7-(7-Chloro-10-(3-(4-chloro-3,5-dimethylphenoxy)propyl)-4-methyl-1-oxo-6-(1,3,5-trimethyl-1H-pyrazol-4-yl)-3,4-dihydropyrazino[1,2-a]indol-2(1H)-yl)-1-ethyl-1H-indole-3-carboxylic acid]",0.48 µM,> 9.00,
